Test results from patent US20150150892A1, “METHODS AND PRODUCTS RELATED TO LUNG CANCER” (Massachusetts Institute of Technology, priority 2012, published 2015).

Assays:
[1] = test system: KrasL^St-G12Dwt (low NF-κB) mice; assay: FIG. 19 study, mice with low NF-κB; type: in vivo, mouse; conditions: 1 mg/kg IV bortezomib
Experimental: FIG. 19 is a schetaic diagram showing the experimental conditions and a set of graphs showing the results. Two sets of mice were treated with […] IV bortezomib, Kras^G120;p53^fl/fl (high NF-κB, top panel) or KrasL^St-G12Dwt (low NF-κB, bottom panel). […] The relapsed tumors have high Hmcgs2.
Mice having either high or low levels of NF-κB were treated with […] IV bortezomib and examined for tumor progression, apoptosis and survival. The mice are Kras^G120;p53^fl/fl (high NF-κB) or KrasL^St-G12Dwt (low NF-κB). […] The relapsed tumors have high Hmcgs2.

[2] = test system: KP lung cancer cells in NCR nu/nu mice; assay: Subcutaneous tumor model, caliper tumor volume; conditions: KP cells s.c. in immunocompromised mice
Experimental: 1×10^6 KP lung cancer cells were injected subcutaneously into NCR nu/nu mice. Tumor volume was quantified by caliper measurements. Treatments started when tumors reached −100 mm^3 (set to 1 in tumor volume axis and 0 days in time axis). Arrows indicate Bortezomib (1 mg/kg) or Cisplatin (7 mg/kg) injections. Error bars are s.d (n=4).
To compare the efficacy of bortezomib to that of other lung cancer therapies, we injected KP lung tumor cells s.c. into immunocompromised mice, allowed tumors to form, and then treated the mice with bortezomib.

NF-κB target genes = assay: Quantitative PCR of NF-κB target genes in KP cells; type: cell-based, mouse
Experimental: FIG. 1. Bortezomib inhibits NF-κB signaling and induces apoptosis in murine lung adenocarcinoma cell lines. (1A) reduction of nuclear p65 level by bortezomib. Two KP (KrasLSL-G12D/wt;p53flox/flox) cell lines (KP1 and KP2) were treated with 5 nM bortezomib (BZ) or vehicle control (ctrl) for 24 hours. Nuclear (N) and cytoplasmic (C) fractions of protein lysates were immunoblotted with the indicated antibodies. NEMO and Parp serve as cytoplasmic and nuclear loading controls, respectively. (1B) quantitative PCR analysis of a subset of NF-κB target genes in 5 nM bortezomib (BZ)-treated KP cells at the indicated time points. Vehicle control is set to 1. (1C) apoptosis in KP and KP^M (KrasLSL-G12D/wt;p53R127H/−) cells induced by bortezomib. Cells were pre-treated with 5 nM bortezomib for 24 hours, and protein lysates were immunoblotted with CC3 and tubulin antibodies. (1D) quantification of cell death in bortezomib-treated cells. Cells were treated with the indicated concentrations of bortezomib for 24 hours, and dead cells were quantified by Trypan blue staining. Error bars are SD (n=3).
FIG. 7: The NF-κB inhibitor Bay-117082 leads to lung tumor regression in vivo. (7A) quantitative PCR analysis of NF-κB target gene expression in KP cells treated with 10 μM Bay-117082 for indicated hours. Error bars are SD (n=3). (7B) Bay-117082 treatment leads to lung tumor regression and delays tumor progression in the orthotopic lung tumor model. A total of 50,000 luciferase-tagged KP cells were transplanted into recipient mice (n=6), and treatment was started at 19 days after transplantation (set at D0). Mice were treated with vehicle control or 10 mg/kg Bay-117082 by i.p. injection, and imaged at the indicated time points. Arrows indicate Bay-117082 injections. (7C) Bay-117082 prolongs survival in the KP model (n=6; P=0.008). “i.p. dosing” indicates treatment with 3 doses per week.
RNA was purified using TRIzol (Invitrogen), according to the manufacturer's instructions. One microgram of RNA was reverse transcribed using the High-Capacity cDNA Reverse Transcription Kit (Applied Biosystems). Real-time PCR (quantitative PCR) amplification was performed using Taqman probes (Applied Biosystems). Data were normalized to the Gapdh (mouse) or GAPDH (human) levels.

[3] = cited from earlier work
[4] = test system: KrasLSL-G12D/wt (K) lung tumors; assay: MicroCT lung tumor volume in K mice; type: in vivo, mouse; conditions: single 1 mg/kg dose, 20 weeks post infection
Description: FIG. 3: Bortezomib induces acute lung tumor regression in KrasLSL-G12D/wt;p53flox/flox (KP) mice, but not in KrasLSL-G12D/wt (K) mice. (3A and 3C) representative microCT images (n=6) of KP (3A) and K (3C) lung tumors prior to pre-treatment (D0) and 4 days (D4) after a single dose of vehicle control or bortezomib. (3 B and 3D) Quantification of tumor volume change (D4 compared with D0) in control- and bortezomib-treated mice. Each bar represents an individual tumor. P<10^−6 in KP mice (3B); P>0.05 in K mice (3D).
The Massachusetts Institute of Technology (Cambridge, Mass.) Institutional Animal Care and Use Committee approved all animal studies and procedures. To initiate lung tumors, cohorts of K or KP mice of 129svJae background were infected with 2.5×10^7 plaque-forming units of Adeno-Cre (University of Iowa) by intranasal inhalation, as described previously (2, 28). Mice were given bortezomib (LC Labs) in PBS [0.5% dimethylsulfoxide (DMSO)] at 1 mg/kg body weight i.v., as indicated. […]
At indicated time points, mice were scanned for 15 min under isoflurane anesthesia, using a small animal eXplore Locus microCT (GE Healthcare) at 45-μm resolution, 80 kV, with 450-mA current (47). […] Mice were imaged for 60 seconds, and signals in the lung were quantified using Xenogen software. […]

[5] = human, in vivo; cited from earlier work
[6] = 5 nM bortezomib, time course, KP cells

## CC(C)C[C@H](NC(=O)[C@H](Cc1ccccc1)NC(=O)c1cnccn1)B(O)O [bortezomib, N-(2-pyrazine) carbonyl-L-phenylalanine-L-leucine boronic acid]
[1]
  tumor response, apoptosis and survival (FIG. 19): no tumor regression, apoptosis and no survival advantage
[2]; Bortezomib 1 mg/kg
  tumor volume, short term: markedly reduced tumor volumes
[2]; Bortezomib 1 mg/kg or Cisplatin 7 mg/kg
  tumor progression: diminished tumor progression to a similar extent as cisplatin
NF-κB target genes; 5 nM bortezomib, KP cells
  I16 mRNA level: increased
NF-κB target genes; [6]
  expression of inflammation NF-κB targets I16, Tnf, Mmp3: not reduced
  expression of proliferation related NF-κB target genes c-Myc and Cyclin D1: reduced expression
NF-κB target genes; 5 nM bortezomib, time course, KP cells, real-time PCR
  expression of NF-κB-regulated antiapoptosis genes Bcl2, Bclx1, Birc2 (cIAP1), Birc5 (Survivin): consistently downregulated
NF-κB target genes; KP cells in vitro, FIG. 1B and FIG. 7A
  Bcl2 and Myc inhibition, bortezomib compared with Bay-117082: more robust
[3]
  half-life in vivo: short half-life
[4]
  tumor regression: did not regress
[5]
  side effects in the clinic: manageable side effects
